The subject of one data set is PHA reaction. Description: PHA reaction 50% inhibition (PHA method by Cooperband et al.), immunoregulatory action in vitro. In kind it is cell-based. The conditions noted are these: read-out: PHA reaction 50% inhibition concentration. The source says: The PHA reaction 50% inhibition concentration of the compounds of the general formula (I) were examined by using the PHA method by Cooperband, S. R., et al., (The Journal of Immunology, 109, (1), 154, (1972)). For sake of comparison, the effect of IRA obtained according to the Occhino et al., method (The Journal of Immunology, 110, (3), 685, (1973)) was also shown.

The subject of data set [1] is edemata grown on the mice legs (carrageenin). Description: Antiphlogistic action: carrageenin edema of hind legs in mice. It is filed as in vivo. The method, then:
20 Mice were divided into four groups of five and the mice of two test groups were administered intra-abdominally with 7-hydroxycholesterol and 7-ketocholesterol, respectively, with the dose of 200 mg/kg (physiologically isotonic 2.0 weight % aqueous solution), and 1 hour later, 0.05 ml of 1% carrageenin was administered as a phlogogenic agent subcutaneously to the hind legs of these mice.
The sizes of the edemata grown on the mice legs with time after carrageenin administration were measured by a volume differential meter and compared with those of the control mice to which an isotonic sodium chloride solution was administered.
The test results are shown in the graph of FIG. 1 of the accompanying drawing. In the graph, percent of growth of edema is given on the vertical Y-axis and time (hour) after carrageenin administration is given on the horizontal X-axis. The numerals for the respective curves represent the respective specimens used in the test, that is, 1 represents isotonic sodium chloride solution, 2 cholesterol, 3 7-ketocholesterol, and 4 7-hydroxycholesterol.
A general note: Carrageenan injected into the paw causes an acute inflammation.

A further data set deals with rats. Nature of the data set: Acute toxicity test in rats. It is filed as in vivo. The settings on record: intra-abdominal, 500, 1,000, 1,500 and 2,000 mg/kg, 5-day observation. The procedure: An acute toxicity test of 7-hydroxycholesterol and 7-ketocholesterol was conducted on one group of rats (5 rats) with average body weight of about 200 gr. Each compound was suspended in a physiological solution of sodium chloride and made into a uniform suspension by a supersonic treatment, and then such suspension was administered intro-abdominally to each rat at the doses of 500 mg/kg, 1,000 mg/kg, 1,500 mg/kg and 2,000 mg/kg, respectively.

Converted amounts (≈) assume the structure as drawn.

Regarding `CC(C)CCC[C@@H](C)[C@H]1CC[C@H]2[C@@H]3C(=O)C=C4C[C@@H](O)CC[C@]4(C)[C@H]3CC[C@]12C` [7-ketocholesterol], in the data set with PHA reaction, the IC50 came out at 8 µg/mL (≈ 20 µM). The growth of edema result in data set [1] (200 mg/kg intra-abdominally, time not separately stated, control 82% in four hours) is on record as “about 50%”. Further, the “death in acute toxicity test” value in the data set on rats is listed as “No death”.

For the compound `CC(C)CCC[C@@H](C)[C@H]1CC[C@H]2[C@@H]3CC=C4C[C@@H](O)CC[C@]4(C)[C@H]3CC[C@]12C` [cholesterol], the growth of edema in data set [1] (four hours after carrageenin, cholesterol group (reference data), control 82%) was found to be 70%.

As to `CC(C)CCC[C@@H](C)[C@H]1CC[C@H]2[C@@H]3C(O)C=C4C[C@@H](O)CC[C@]4(C)[C@H]3CC[C@]12C` (stereo partly shown) [7-hydroxycholesterol], in the data set on PHA reaction, the IC50 amounted to 5 µg/mL (≈ 12.4 µM). In data set [1] (200 mg/kg intra-abdominally, five hours after carrageenin, control 82% in four hours), the growth of edema entry was “about 40%”. Besides, the “death in acute toxicity test” value in the data set on rats is listed as “No death”.

Source of the values: patent publication US4157391A, “Cholesterol derivative-based medicaments acting on bio-protective mechanisms” (The Green Cross Corporation, priority 1977, dated 1979).
